Measured values taken from PubChem BioAssay AID2060488 (Molecular Pharmacology Branch, DTP, NCI, 2025).

System: 966289-007-R4-J1-PDC complex spheroid viability
Assay: Anticancer human tumor 966289-007-R4-J1-PDC patient-derived pancreatic adenocarcinoma cell line growth inhibition [GQUAD]
Conditions: for IC50: curve of first compound; for viability, T/C: stronger effect = lower value
Procedure, shortened: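 Multi-cell-type spheroids of tumor cells with HUVEC and mesenchymal stem cells, treated with drug combinations. Concentrations descend in half-log steps from near clinical Cmax, or from 10 microM where Cmax is unknown; viability read-out.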

[1] = second compound 0.0316 µM, first compound 0.0316 µM
[2] = second compound 0.0316 µM, first compound 0.316 µM
[3] = second compound 0.1 µM, first compound 0.0316 µM
[4] = second compound 0.1 µM, first compound 0.316 µM
[5] = second compound 0.316 µM, first compound 0.0316 µM
[6] = second compound 0.316 µM, first compound 0.316 µM
[7] = second compound 1 µM, first compound 0.0316 µM
[8] = second compound 1 µM, first compound 0.316 µM
[9] = second compound 3.16 µM, first compound 0.0316 µM
[10] = second compound 3.16 µM, first compound 0.316 µM
[11] = second compound 10 µM, first compound 0.0316 µM
[12] = second compound 10 µM, first compound 0.316 µM
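Further: spheroids exposed to the agents for seven days before readout.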
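Wherever viability, T/C is given: percent viability relative to DMSO vehicle control wells taken as 100%.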

**Q.** For `C=CC(=O)N1CCN(c2nc(=O)n(-c3c(C)ccnc3C(C)C)c3nc(-c4c(O)cccc4F)c(F)cc23)C(C)C1` (centres undefined) + Cc1[nH]c2ccc(F)cc2c1-c1nc2c3cccnc3c3ncccc3c2[nH]1, which IC50 (second compound 0.0316 µM) is on record?
**A.** The IC50 was greater than 10000 nM.

**Q.** What about the IC50 (second compound 0.1 µM) of the same molecule?
**A.** The IC50 was greater than 10000 nM.

**Q.** And the IC50 (second compound 0.316 µM)?
**A.** Its IC50 is greater than 10000 nM.

**Q.** And the IC50 (second compound 1 µM)?
**A.** Its IC50 is greater than 10000 nM.

**Q.** What about the IC50 (second compound 3.16 µM) of the same molecule?
**A.** The IC50 was greater than 10000 nM.

**Q.** And the IC50 (second compound 10 µM)?
**A.** The IC50 was greater than 10000 nM.

**Q.** What about the viability, T/C [1] of the same molecule?
**A.** Its viability, T/C is 99.9%.

**Q.** And the viability, T/C (second compound 0.0316 µM, first compound 0.1 µM)?
**A.** The viability, T/C was 94.1%.

**Q.** And the viability, T/C [2]?
**A.** Its viability, T/C is 103%.

**Q.** And the viability, T/C (second compound 0.0316 µM, first compound 1 µM)?
**A.** Its viability, T/C is 93.8%.

**Q.** What about the viability, T/C (second compound 0.0316 µM, first compound 3.16 µM) of the same molecule?
**A.** The viability, T/C was 105%.

**Q.** And the viability, T/C (second compound 0.0316 µM, first compound 10 µM)?
**A.** Its viability, T/C is 107%.

**Q.** What about the viability, T/C [3] of the same molecule?
**A.** Its viability, T/C is 105%.

**Q.** And the viability, T/C (second compound 0.1 µM, first compound 0.1 µM)?
**A.** Its viability, T/C is 96.6%.

**Q.** What about the viability, T/C [4] of the same molecule?
**A.** Its viability, T/C is 103%.

**Q.** What about the viability, T/C (second compound 0.1 µM, first compound 1 µM) of the same molecule?
**A.** The viability, T/C was 95.2%.

**Q.** And the viability, T/C (second compound 0.1 µM, first compound 3.16 µM)?
**A.** The viability, T/C was 102%.

**Q.** What about the viability, T/C (second compound 0.1 µM, first compound 10 µM) of the same molecule?
**A.** The viability, T/C was 114%.

**Q.** And the viability, T/C [5]?
**A.** The viability, T/C was 97.4%.

**Q.** And the viability, T/C (second compound 0.316 µM, first compound 0.1 µM)?
**A.** Its viability, T/C is 99.7%.

**Q.** What about the viability, T/C [6] of the same molecule?
**A.** Its viability, T/C is 90.3%.

**Q.** And the viability, T/C (second compound 0.316 µM, first compound 1 µM)?
**A.** The viability, T/C was 106%.

**Q.** What about the viability, T/C (second compound 0.316 µM, first compound 3.16 µM) of the same molecule?
**A.** The viability, T/C was 104%.

**Q.** What about the viability, T/C (second compound 0.316 µM, first compound 10 µM) of the same molecule?
**A.** Its viability, T/C is 111%.

**Q.** And the viability, T/C [7]?
**A.** The viability, T/C was 95.4%.

**Q.** And the viability, T/C (second compound 1 µM, first compound 0.1 µM)?
**A.** The viability, T/C was 103%.

**Q.** What about the viability, T/C [8] of the same molecule?
**A.** Its viability, T/C is 105%.

**Q.** And the viability, T/C (second compound 1 µM, first compound 1 µM)?
**A.** Its viability, T/C is 98.4%.

**Q.** What about the viability, T/C (second compound 1 µM, first compound 3.16 µM) of the same molecule?
**A.** The viability, T/C was 86.1%.

**Q.** What about the viability, T/C (second compound 1 µM, first compound 10 µM) of the same molecule?
**A.** Its viability, T/C is 109%.

**Q.** What about the viability, T/C [9] of the same molecule?
**A.** Its viability, T/C is 101%.

**Q.** What about the viability, T/C (second compound 3.16 µM, first compound 0.1 µM) of the same molecule?
**A.** Its viability, T/C is 101%.

**Q.** And the viability, T/C [10]?
**A.** The viability, T/C was 111%.

**Q.** And the viability, T/C (second compound 3.16 µM, first compound 1 µM)?
**A.** The viability, T/C was 100%.

**Q.** What about the viability, T/C (second compound 3.16 µM, first compound 3.16 µM) of the same molecule?
**A.** The viability, T/C was 108%.

**Q.** What about the viability, T/C (second compound 3.16 µM, first compound 10 µM) of the same molecule?
**A.** The viability, T/C was 101%.

**Q.** And the viability, T/C [11]?
**A.** Its viability, T/C is 99.2%.

**Q.** And the viability, T/C (second compound 10 µM, first compound 0.1 µM)?
**A.** Its viability, T/C is 98%.

**Q.** And the viability, T/C [12]?
**A.** Its viability, T/C is 104%.

**Q.** What about the viability, T/C (second compound 10 µM, first compound 1 µM) of the same molecule?
**A.** The viability, T/C was 101%.

**Q.** What about the viability, T/C (second compound 10 µM, first compound 3.16 µM) of the same molecule?
**A.** Its viability, T/C is 94.4%.

**Q.** What about the viability, T/C (second compound 10 µM, first compound 10 µM) of the same molecule?
**A.** The viability, T/C was 76.8%.

**Q.** Which IC50 (second compound 0.0316 µM) does the source give for `CC[C@@]1(O)C(=O)OCc2c1cc1n(c2=O)Cc2cc3c(CN(C)C)c(O)ccc3nc2-1` + Cc1[nH]c2ccc(F)cc2c1-c1nc2c3cccnc3c3ncccc3c2[nH]1 here?
**A.** Its IC50 is 44.6 nM.

**Q.** What about the IC50 (second compound 0.1 µM) of the same molecule?
**A.** The IC50 was 48 nM.

**Q.** What about the IC50 (second compound 0.316 µM) of the same molecule?
**A.** The IC50 was 50.2 nM.

**Q.** And the IC50 (second compound 1 µM)?
**A.** Its IC50 is 49.2 nM.

**Q.** And the IC50 (second compound 3.16 µM)?
**A.** The IC50 was 36.9 nM.

**Q.** And the IC50 (second compound 10 µM)?
**A.** Its IC50 is 25.9 nM.

**Q.** And the viability, T/C (second compound 0.0316 µM, first compound 0.000999 µM)?
**A.** The viability, T/C was 102%.

**Q.** And the viability, T/C (second compound 0.0316 µM, first compound 0.00316 µM)?
**A.** Its viability, T/C is 94.6%.

**Q.** And the viability, T/C (second compound 0.0316 µM, first compound 0.00999 µM)?
**A.** Its viability, T/C is 90.2%.

**Q.** What about the viability, T/C [1] of the same molecule?
**A.** Its viability, T/C is 70.8%.

**Q.** What about the viability, T/C (second compound 0.0316 µM, first compound 0.0999 µM) of the same molecule?
**A.** Its viability, T/C is 0.88%.

**Q.** And the viability, T/C [2]?
**A.** Its viability, T/C is 0.48%.

**Q.** What about the viability, T/C (second compound 0.1 µM, first compound 0.000999 µM) of the same molecule?
**A.** The viability, T/C was 99.3%.

**Q.** What about the viability, T/C (second compound 0.1 µM, first compound 0.00316 µM) of the same molecule?
**A.** Its viability, T/C is 101%.

**Q.** What about the viability, T/C (second compound 0.1 µM, first compound 0.00999 µM) of the same molecule?
**A.** Its viability, T/C is 101%.

**Q.** And the viability, T/C [3]?
**A.** Its viability, T/C is 78.2%.

**Q.** What about the viability, T/C (second compound 0.1 µM, first compound 0.0999 µM) of the same molecule?
**A.** The viability, T/C was 0.6%.

**Q.** What about the viability, T/C [4] of the same molecule?
**A.** Its viability, T/C is 0.5%.

**Q.** And the viability, T/C (second compound 0.316 µM, first compound 0.000999 µM)?
**A.** The viability, T/C was 94.1%.

**Q.** What about the viability, T/C (second compound 0.316 µM, first compound 0.00316 µM) of the same molecule?
**A.** The viability, T/C was 105%.

**Q.** And the viability, T/C (second compound 0.316 µM, first compound 0.00999 µM)?
**A.** The viability, T/C was 110%.

**Q.** What about the viability, T/C [5] of the same molecule?
**A.** The viability, T/C was 83.1%.

**Q.** What about the viability, T/C (second compound 0.316 µM, first compound 0.0999 µM) of the same molecule?
**A.** The viability, T/C was 0.88%.

**Q.** And the viability, T/C [6]?
**A.** Its viability, T/C is 0.49%.

**Q.** And the viability, T/C (second compound 1 µM, first compound 0.000999 µM)?
**A.** Its viability, T/C is 92.4%.

**Q.** And the viability, T/C (second compound 1 µM, first compound 0.00316 µM)?
**A.** The viability, T/C was 95%.

**Q.** What about the viability, T/C (second compound 1 µM, first compound 0.00999 µM) of the same molecule?
**A.** Its viability, T/C is 106%.

**Q.** What about the viability, T/C [7] of the same molecule?
**A.** Its viability, T/C is 80.9%.

**Q.** What about the viability, T/C (second compound 1 µM, first compound 0.0999 µM) of the same molecule?
**A.** The viability, T/C was 0.78%.

**Q.** And the viability, T/C [8]?
**A.** The viability, T/C was 0.62%.

**Q.** And the viability, T/C (second compound 3.16 µM, first compound 0.000999 µM)?
**A.** Its viability, T/C is 105%.

**Q.** What about the viability, T/C (second compound 3.16 µM, first compound 0.00316 µM) of the same molecule?
**A.** The viability, T/C was 113%.

**Q.** And the viability, T/C (second compound 3.16 µM, first compound 0.00999 µM)?
**A.** Its viability, T/C is 115%.

**Q.** And the viability, T/C [9]?
**A.** Its viability, T/C is 57.7%.

**Q.** And the viability, T/C (second compound 3.16 µM, first compound 0.0999 µM)?
**A.** Its viability, T/C is 0.9%.

**Q.** What about the viability, T/C [10] of the same molecule?
**A.** Its viability, T/C is 0.56%.

**Q.** What about the viability, T/C (second compound 10 µM, first compound 0.000999 µM) of the same molecule?
**A.** The viability, T/C was 105%.

**Q.** What about the viability, T/C (second compound 10 µM, first compound 0.00316 µM) of the same molecule?
**A.** The viability, T/C was 106%.

**Q.** And the viability, T/C (second compound 10 µM, first compound 0.00999 µM)?
**A.** The viability, T/C was 108%.

**Q.** And the viability, T/C [11]?
**A.** Its viability, T/C is 38.2%.

**Q.** What about the viability, T/C (second compound 10 µM, first compound 0.0999 µM) of the same molecule?
**A.** The viability, T/C was 0.71%.

**Q.** What about the viability, T/C [12] of the same molecule?
**A.** The viability, T/C was 0.5%.
